# Test: Replicon assay (luciferase readout, ET cell line)
# Assay type: cell-based
# Details: Hepatitis C virus; 10 μM compound; ET (Huh-lucubineo-ET) cells; luciferase activity measured 48-72 hours after addition; relative to no compound control; read-out: % Inhib. at 10 μM (percent inhibition of replication)
# Method: A cell line, ET (Huh-lucubineo-ET) is used for screening of compounds for inhibiting HCV RNA dependent RNA polymerase. The ET cell line is stably transfected with RNA transcripts harboring a I389luc-ubi-neo/NS3-3′/ET; replicon with firefly luciferase-ubiquitin-neomycin phosphotransferase fusion protein and EMCV-IRES driven NS3-5B polyprotein containing the cell culture adaptive mutations (E1202G; T12801; K1846T) (Krieger at al, 2001 and unpublished). The ET cells are grown in DMEM (Dulbeco's Modified Eagle's Medium), supplemented with 10% fetal calf serum, 2 mM Glutamine, Penicillin (100 IU/mL)/Streptomycin (100 μg/mL), 1× nonessential amino acids, and 250 μg/mL G418 (“Geneticin”). They are all available through Life Technologies (Bethesda, Md.). The cells are plated at 0.5-1.0×10^4 cells/well in the 96 well plates and incubated for 24 hrs before adding test compound. The compounds are added to the cells to achieve a final concentration of 0.1 nM to 50 μm and a final DMSO (dimethylsulfoxide) concentration of 0.5%. Luciferase activity is measured 48-72 hours later by adding a lysis buffer and the substrate (Catalog number Glo-lysis buffer E2661 and Bright-Glo luciferase system E2620 Promega, Madison, Wis.). Cells should not be too confluent during the assay. Percent inhibition of replication data is plotted relative to no compound control. Under the same condition, cytotoxicity of the compounds are determined using cell proliferation reagent, WST-1(Roche, Germany). The compounds showing antiviral activities, but no significant cytotoxicities are chosen to determine IC50 and TC50. For these determinations, a 10 point, 2-fold serial dilution for each compound was used, which spans a concentration range of 1000 fold. IC50 and TC50 values were calculated by fitting % inhibition at each concentration to the following equation:
# % inhibition=100%/[(IC50/[I])^b+1]
# where b is Hill's coefficient. […]
row,SMILES,inhibition at 10 µM [%]
1,"O=C(Nc1nc(-c2ccc(C(=O)NC3CC3)cc2)cs1)c1ccc(CN2CCS(=O)(=O)CC2)cc1 [Compound 102, 4-{2-[4-(1,1-Dioxo-thiomorpholin-4-ylmethyl)-benzoylamino]-thiazol-4-yl}-N-cyclopropyl-benzamide]",47.4
2,"O=C(Nc1ccc(N2CCOCC2)cc1)c1ccc(-c2csc(C(=O)Nc3ccc(N4CCOCC4)cc3)n2)cc1 [Compound 111, 4-[4-(4-Morpholin-4-yl-phenylcarbamoyl)-phenyl]-thiazole-2-carboxylic acid (4-morpholin-4-yl-phenyl)-amide]",34.2
3,"O=C(Nc1ccc(CN2CCS(=O)(=O)CC2)cc1)c1cccc(-c2csc(NC(=O)c3ccc(N4CCOCC4)cc3)n2)c1 [Compound 109, 3-[2-(4-morpholin-4-yl-benzoylamino)-thiazol-4-yl]-N-[4-(1,1-dioxo-thiomorpholin-4-ylmethyl)-phenyl]-benzamide]",99.8
4,"CCCS(=O)(=O)N1CCN(Cc2ccc(NC(=O)c3ccc(-c4csc(C(=O)Nc5ccc(CN6CCN(S(=O)(=O)CCC)CC6)cc5)n4)cc3)cc2)CC1 [Compound 114, 4-(4-{4-[4-(Propane-1-sulfonyl)-piperazin-1-ylmethyl]-phenylcarbamoyl}-phenyl)-thiazole-2-carboxylic acid {4-[4-(propane-1-sulfonyl)-piperazin-1-ylmethyl]-phenyl}-amide]",98
5,"O=C(Nc1ccc(N2CCOCC2)cc1)c1cccc(-c2csc(NC(=O)c3ccc(CN4CCS(=O)(=O)CC4)cc3)n2)c1 [Compound 104, 3-{2-[4-(1,1-Dioxo-thiomorpholin-4-ylmethyl)-benzoylamino]-thiazol-4-yl}-N-(4-morpholin-4-yl-phenyl)-benzamide]",95.8
6,"O=C(Nc1ccc(N2CCOCC2)cc1)c1cccc(-c2csc(C(=O)Nc3ccc(CN4CCS(=O)(=O)CC4)cc3)n2)c1 [Compound 107, 4-[3-(4-Morpholin-4-yl-phenylcarbamoyl)-phenyl]-thiazole-2-carboxylic acid [4-(1,1-dioxo-thiomorpholin-4-ylmethyl)-phenyl]-amide]",36.5
7,"CCCS(=O)(=O)N1CCN(Cc2ccc(NC(=O)c3cccc(-c4csc(C(=O)Nc5ccc(N6CCOCC6)cc5)n4)c3)cc2)CC1 [Compound 116, 4-(3-{4-[4-(Propane-1-sulfonyl)-piperazin-1-ylmethyl]-phenylcarbamoyl}-phenyl)-thiazole-2-carboxylic acid (4-morpholin-4-yl-phenyl)-amide]",99.5
8,"O=C(Nc1ccc(N2CCOCC2)cc1)c1cccc(-c2csc(C(=O)Nc3ccc(N4CCOCC4)cc3)n2)c1 [Compound 112, 4-[3-(4-Morpholin-4-yl-phenylcarbamoyl)-phenyl]-thiazole-2-carboxylic acid (4-morpholin-4-yl-phenyl)-amide]",98.5
9,"O=C(Nc1ccc(CN2CCS(=O)(=O)CC2)cc1)c1ccc(-c2csc(C(=O)Nc3ccc(CN4CCS(=O)(=O)CC4)cc3)n2)cc1 [Compound 110, 4-{4-[4-(1,1-Dioxo-thiomorpholin-4-ylmethyl)-phenylcarbamoyl]-phenyl}-thiazole-2-carboxylic acid [4-(1,1-dioxo-thiomorpholin-4-ylmethyl)-phenyl]-amide]",99.9
10,"O=C(Nc1ccc(CN2CCS(=O)(=O)CC2)cc1)c1cccc(-c2csc(C(=O)Nc3ccc(CN4CCS(=O)(=O)CC4)cc3)n2)c1 [Compound 113, 4-{3-[4-(1,1-Dioxo-thiomorpholin-4-ylmethyl)-phenylcarbamoyl]-phenyl}-thiazole-2-carboxylic acid [4-(1,1-dioxo-thiomorpholin-4-ylmethyl)-phenyl]-amide]",89.5
11,"CCCS(=O)(=O)N1CCN(Cc2ccc(NC(=O)c3cccc(-c4csc(C(=O)Nc5ccc(CN6CCN(S(=O)(=O)CCC)CC6)cc5)n4)c3)cc2)CC1 [Compound 115, 4-(3-{4-[4-(Propane-1-sulfonyl)-piperazin-1-ylmethyl]-phenylcarbamoyl}-phenyl)-thiazole-2-carboxylic acid {4-[4-(propane-1-sulfonyl)-piperazin-1-ylmethyl]-phenyl}-amide]",100
12,"O=C(Nc1ccc(CN2CCS(=O)(=O)CC2)cc1)c1cccc(-c2csc(C(=O)Nc3ccc(N4CCOCC4)cc3)n2)c1 [Compound 108, 4-{3-[4-(1,1-Dioxo-thiomorpholin-4-ylmethyl)-phenylcarbamoyl]-phenyl}-thiazole-2-carboxylic acid (4-morpholin-4-yl-phenyl)-amide]",63.1

# From patent US20090317360A1, “ANTI-VIRAL INHIBITORS AND METHODS OF USE” (Genelabs Technologies, Inc., priority 2007, published 2009)
